Experimental data taken from patent US20250215039A1, “NUCLEOSIDES FOR TREATING CANCER” (PRIMEFOUR THERAPEUTICS, INC., priority 2022, published 2025).
pIC50: −log10 of the molar value. Read-outs that look alike come from different tables or passages of the source.

Columns and labels:
[1] = molecular target: human cytidine deaminase (CDA) (Homo sapiens, UniProt P32320); assay: Metabolism by human cytidine deaminase (CDA), substrate absorbance at 290 nm
cancer cell lines = assay: Cancer cell proliferation activity (CellTiterGlo, 72 h); type: cell-based; conditions: for pIC50: 72 h, read-out: IC50 cell proliferation
In short: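 Readout is CellTiterGlo luminescence after 72 h compound exposure (0.1% DMSO final), started one day post-seeding, at 37 °C.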

Chain of human cytidine deaminase (CDA) (P32320 whole entry): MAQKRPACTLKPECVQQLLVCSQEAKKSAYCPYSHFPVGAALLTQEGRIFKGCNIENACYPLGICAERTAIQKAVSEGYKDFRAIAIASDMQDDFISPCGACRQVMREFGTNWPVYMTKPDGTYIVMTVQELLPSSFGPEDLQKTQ

- metabolism (deamination) by human CDA (line graph) ([1]; 12 nM CDA, 50 and 200 uM substrate, 37° C., pH 7.5, figure legends FIG. 4-9): not metabolized
- substrate conversion by CDA (Inactive) ([1]; rate of substrate conversion at 200 μM, could not be fitted): Inactive
- pIC50 (cancer cell lines; 5637 (bladder)): 8.40
- pIC50 (cancer cell lines; CLS439 (bladder)): < 4.30
- pIC50 (cancer cell lines; HS729 (muscle)): < 4.30
- pIC50 (cancer cell lines; J82 (bladder)): 6.67
- pIC50 (cancer cell lines; JAR (placenta)): < 4.30
- pIC50 (cancer cell lines; MT3 (breast)): 7.80
- pIC50 (cancer cell lines; PANCI (pancreas)): < 4.30
- pIC50 (cancer cell lines; PC3 (prostate)): < 4.30
- pIC50 (cancer cell lines; RD (muscle)): 7.18
- pIC50 (cancer cell lines; T24 (bladder)): 7.01
- pIC50 (cancer cell lines; Homo sapiens, 22Rv1, 72 h, 22RV1 (prostate)): 7.08
- pIC50 (cancer cell lines; Homo sapiens, 786-0, 72 h, 786O (kidney)): < 4.30
- pIC50 (cancer cell lines; Homo sapiens, A204, 72 h, A204 (muscle)): 6.15
- pIC50 (cancer cell lines; Homo sapiens, A549, 72 h, A549 (lung)): 7.12
- pIC50 (cancer cell lines; Homo sapiens, A673, 72 h, A673 (bone)): 6.96
- pIC50 (cancer cell lines; Homo sapiens, A2780, 72 h, A2780 (ovary)): 6.67
- pIC50 (cancer cell lines; Homo sapiens, A-375, 72 h, A375 (skin)): 6.74
- pIC50 (cancer cell lines; Homo sapiens, A-431, 72 h, A431 (skin)): 8.70
- pIC50 (cancer cell lines; Homo sapiens, ACHN, ACHN (kidney)): 7.92
- pIC50 (cancer cell lines; Homo sapiens, ASPC1, 72 h, ASPC1 (pancreas)): 7.96
- pIC50 (cancer cell lines; Homo sapiens, BT-20, 72 h, BT20 (breast)): < 4.30
- pIC50 (cancer cell lines; Homo sapiens, BXPC-3, 72 h, BXPC3 (pancreas)): 9.40
- pIC50 (cancer cell lines; Homo sapiens, C-33-A, C33A (endometrial)): 7.33
- pIC50 (cancer cell lines; Homo sapiens, CAKI-1, 72 h, CAKI1 (kidney)): < 4.30
- pIC50 (cancer cell lines; Homo sapiens, COLO 205, 72 h, COLO205 (colon)): 7.74
- pIC50 (cancer cell lines; Homo sapiens, COLO-678, 72 h, COLO678 (colon)): < 4.30
- pIC50 (cancer cell lines; Homo sapiens, Ca-Ski, CASKI (endometrial)): < 4.30
- pIC50 (cancer cell lines; Homo sapiens, Caco-2, 72 h, CACO2 (colon)): < 4.30
- pIC50 (cancer cell lines; Homo sapiens, Calu-6, 72 h, CALU6 (lung)): 7.12
- pIC50 (cancer cell lines; Homo sapiens, DLD-1, 72 h, DLD1 (colon)): 5.05
- pIC50 (cancer cell lines; Homo sapiens, DU-145, 72 h, DU145 (prostate)): 6.37
- pIC50 (cancer cell lines; Homo sapiens, EFO-21, 72 h, EFO21 (ovary)): < 4.30
- pIC50 (cancer cell lines; Homo sapiens, EJ-28, 72 h, EJ28 (bladder)): 7.18
- pIC50 (cancer cell lines; Homo sapiens, Granta-519, 72 h, GRANTA-519 (hematological)): 8.00
- pIC50 (cancer cell lines; Homo sapiens, HCT-15, 72 h, HCT15 (colon)): 5.86
- pIC50 (cancer cell lines; Homo sapiens, HCT-116, 72 h, HCT116 (colon)): 5.95
- pIC50 (cancer cell lines; Homo sapiens, HEK293, 72 h, HEK293 (kidney)): < 4.30
- pIC50 (cancer cell lines; Homo sapiens, HL-60, 72 h, HL-60 (hematological)): 6.61
- pIC50 (cancer cell lines; Homo sapiens, HT-29, 72 h, HT29 (colon)): 7.22
- pIC50 (cancer cell lines; Homo sapiens, HT-1080, 72 h, HT1080 (connective tissue)): 7.34
- pIC50 (cancer cell lines; Homo sapiens, HeLa, HELA (endometrial)): < 4.30
- pIC50 (cancer cell lines; Homo sapiens, HepG2, 72 h, HEPG2 (liver)): 7.05
- pIC50 (cancer cell lines; Homo sapiens, Hs-578T, HS578T (breast)): < 4.30
- pIC50 (cancer cell lines; Homo sapiens, IGROV-1, 72 h, IGROV1 (ovary)): 5.80
- pIC50 (cancer cell lines; Homo sapiens, IMR-90, 72 h, IMR90 (lung)): < 4.30
- pIC50 (cancer cell lines; Homo sapiens, JEG-3, 72 h, JEG3 (placenta)): 7.43
- pIC50 (cancer cell lines; Homo sapiens, JIMT-1, 72 h, JIMT1 (breast)): < 4.30
- pIC50 (cancer cell lines; Homo sapiens, K562, 72 h, K-562 (hematological)): < 4.30
- pIC50 (cancer cell lines; Homo sapiens, Kasumi 1, 72 h, KASUMI-1 (hematological)): 7.12
- pIC50 (cancer cell lines; Homo sapiens, L-363, 72 h, L-363 (hematological)): < 4.30
- pIC50 (cancer cell lines; Homo sapiens, LoVo, LOVO (colon)): 8.22
- pIC50 (cancer cell lines; Homo sapiens, MCF7, 72 h, MCF7 (breast)): 6.74
- pIC50 (cancer cell lines; Homo sapiens, MDA-MB-231, 72 h, MDAMB231 (breast)): < 4.30
- pIC50 (cancer cell lines; Homo sapiens, MDA-MB-435, 72 h, MDAMB435 (skin)): 6.03
- pIC50 (cancer cell lines; Homo sapiens, MDA-MB-436, 72 h, MDAMB436 (breast)): 7.39
- pIC50 (cancer cell lines; Homo sapiens, MDA-MB-468, 72 h, MDAMB468 (breast)): < 4.30
- pIC50 (cancer cell lines; Homo sapiens, MG-63, 72 h, MG63 (bone)): 6.44
- pIC50 (cancer cell lines; Homo sapiens, MHH-ES-1, 72 h, MHHES1 (bone)): 5.59
- pIC50 (cancer cell lines; Homo sapiens, MIA PaCa-2, 72 h, MIAPACA2 (pancreas)): 6.04
- pIC50 (cancer cell lines; Homo sapiens, MINO, MINO (hematological)): 8.70
- pIC50 (cancer cell lines; Homo sapiens, MV4-11, 72 h, MV4-11 (hematological)): 7.36
- pIC50 (cancer cell lines; Homo sapiens, NCI-H23, 72 h, NCI-H23 (lung)): 6.48
- pIC50 (cancer cell lines; Homo sapiens, NCI-H82, 72 h, NCIH82 (lung)): 7.06
- pIC50 (cancer cell lines; Homo sapiens, NCI-H292, 72 h, NCIH292 (lung)): 6.94
- pIC50 (cancer cell lines; Homo sapiens, NCI-H460, 72 h, NCIH460 (lung)): 7.21
- pIC50 (cancer cell lines; Homo sapiens, OVCAR-3, 72 h, OVCAR3 (ovary)): < 4.30
- pIC50 (cancer cell lines; Homo sapiens, OVCAR-4, 72 h, OVCAR4 (ovary)): < 4.30
- pIC50 (cancer cell lines; Homo sapiens, PLC-PRF-5, 72 h, PLCPRF5 (liver)): < 4.30
- pIC50 (cancer cell lines; Homo sapiens, Panc1005, 72 h, PANC1005 (pancreas)): < 4.30
- pIC50 (cancer cell lines; Homo sapiens, Ramos, RAMOS (hematological)): 6.53
- pIC50 (cancer cell lines; Homo sapiens, SAOS-2, 72 h, SAOS2 (bone)): 8.22
- pIC50 (cancer cell lines; Homo sapiens, SF-268, 72 h, SF268 (brain)): 6.73
- pIC50 (cancer cell lines; Homo sapiens, SF-295, 72 h, SF295 (brain)): < 4.30
- pIC50 (cancer cell lines; Homo sapiens, SK-BR-3, 72 h, SKBR3 (breast)): 8.30
- pIC50 (cancer cell lines; Homo sapiens, SK-HEP1, 72 h, SKHEP1 (liver)): 5.88
- pIC50 (cancer cell lines; Homo sapiens, SK-LMS-1, 72 h, SKLMS1 (uterus)): 6.53
- pIC50 (cancer cell lines; Homo sapiens, SK-MEL-5, 72 h, SKMEL5 (skin; SKMELS [sic] in Table 9E)): < 4.30
- pIC50 (cancer cell lines; Homo sapiens, SK-MEL-28, 72 h, SKMEL28 (skin)): < 4.30
- pIC50 (cancer cell lines; Homo sapiens, SK-N-AS, SKNAS (brain)): < 4.30
- pIC50 (cancer cell lines; Homo sapiens, SK-N-SH, SKNSH (brain)): < 4.30
- pIC50 (cancer cell lines; Homo sapiens, SK-OV-3, 72 h, SKOV3 (ovary)): 7.15
- pIC50 (cancer cell lines; Homo sapiens, SNB-75, 72 h, SNB75 (brain)): < 4.30
- pIC50 (cancer cell lines; Homo sapiens, SU-DHL10, 72 h, SU-DHL-10 (hematological)): 5.94
- pIC50 (cancer cell lines; Homo sapiens, SU-DHL-6, 72 h, SU-DHL-6 (hematological)): 6.84
- pIC50 (cancer cell lines; Homo sapiens, SW-620, 72 h, SW620 (colon)): 7.09
- pIC50 (cancer cell lines; Homo sapiens, TE-671, 72 h, TE671 (muscle)): 7.09
- pIC50 (cancer cell lines; Homo sapiens, THP-1, 72 h, THP-1 (hematological)): 6.88
- pIC50 (cancer cell lines; Homo sapiens, U2OS, U20S (bone; U2OS in Table 9E)): < 4.30
- pIC50 (cancer cell lines; Homo sapiens, U-87 MG, U87MG (brain)): < 4.30
- pIC50 (cancer cell lines; Homo sapiens, UMUC3, 72 h, UMUC3 (bladder)): 6.64
- pIC50 (cancer cell lines; Homo sapiens, UO-31, 72 h, UO31 (kidney)): < 4.30
- pIC50 (cancer cell lines; Homo sapiens, WSU-NHL, WSU-NHL (hematological)): 6.35
- pIC50 (cancer cell lines; NCI-H358M, NCIH358M (lung)): 7.72
- pIC50 (cancer cell lines; PBMC, PBMC (hematological)): 5.52
- pIC50 (cancer cell lines; RD-ES, RDES (bone)): 4.98
Structure (SMILES): Nc1nc(=O)n([C@H]2C[C@H](O)[C@](CO)(CF)O2)cc1F [Cpd. No. 197, 4-amino-5-fluoro-1-((2R,4S,5R)-5-(fluoromethyl)-4-hydroxy-5-(hydroxymethyl)tetrahydrofuran-2-yl)pyrimidin-2(1H)-one]
- cytotoxicity against a panel of cell lines (waterfall plot) (cancer cell lines; panel of cancer and non-cancer cell lines, figure legends FIG. 1-3): selectively cytotoxic in cancer cell lines with high DDR activity
